Measurements: patent US10596218B2, “Coix seed oil containing 16 glycerides, and pharmaceutical preparation and use thereof” (ZHEJIANG KANGLAITE GROUP CO., LTD., priority 2014, dated 2020)
≈ marks a conversion by molar mass, not a printed value.

What was measured:
Format in all cases: cell-based
[1] = test system: SMMC-7721 (human hepatic cancer cells); assay: MTT inhibition of cell growth in vitro, SMMC-7721; conditions: SMMC-7721, MTT, 48 h, read-out: IC50 values of samples in vitro
From the text: (§1) (1) Cell lines: PANC-1 (human pancreatic cancer cells), SKOV3 (human ovarian cancer cells), MCF-7 (human breast cancer cells), Bcap-37 (human breast cancer cells), SMMC-7721 (human hepatic cancer cells), HepG-2 (human hepatic cancer cells), A549 (human lung cancer cells) and H460 (human lung cancer cells), storaged and passaged maintainably in Research and Evaluation Center for Pharmacology, Shanghai Institute of Pharmaceutical Industry;
(§2) The inhibition effects of samples on the above-mentioned cell lines were detected by using MTT method. The specific procedures were as follows: […]
(§3) (4) Cells in a logarithmic growth stage were trypsinized and washed, then re-suspended in the medium containing 10% calf serum. The number of living cells was counted in Trypan blue dye exclusion method and cell suspensions were adjusted into a density of 2×10^5 cell/ml. […]
(§4) (7) 100 μl of crystal dissolving solution was added into each well and cells were incubated continuously in the incubator overnight, so as to dissolve the resulted formazan crystals sufficiently. Then, the absorbance value was measured at 570 nm for each well.
(§5) (8) Based on absorbance values, inhibition rates on the cell growth were calculated for sample groups of various concentrations. The calculation formula was as follows: (1−mean absorbance of experimental wells/mean absorbance of control wells)×100%

[2] = test system: SKOV3 (human ovarian cancer cells); assay: MTT inhibition of cell growth in vitro, SKOV3; conditions: SK-OV-3, 48 h, read-out: IC50 values of samples in vitro
From the text: as §1, §2, §3, §4, §5

[3] = test system: PANC-1 (human pancreatic cancer cells); assay: MTT inhibition of cell growth in vitro, PANC-1; conditions: PANC-1, MTT, 48 h, read-out: IC50 values of samples in vitro
From the text: as §1, §2, §3, §4, §5

[4] = test system: H460 (human lung cancer cells); assay: MTT inhibition of cell growth in vitro, H460; conditions: NCI-H460, 48 h, read-out: IC50 values of samples in vitro
From the text: as §1, §2, §3, §4, §5

[5] = test system: Bcap-37 (human breast cancer cells); assay: MTT inhibition of cell growth in vitro, Bcap-37; conditions: Bcap37, Bcap-37, MTT, 48 h, read-out: IC50 values of samples in vitro
From the text: as §1, §2, §3, §4, §5

- IC50 [1]: 0.12 mg/L (≈ 0.141 µM)
- IC50 [2]: 0.22 mg/L (≈ 0.258 µM)
- IC50 [3]: 0.44 mg/L (≈ 0.515 µM)
- IC50 [4]: 0.49 mg/L (≈ 0.574 µM)
- IC50 [5]: 0.28 mg/L (≈ 0.328 µM)
SMILES: CC(=O)O[C@H]1C(=O)[C@@]2(C)[C@H]([C@H](OC(=O)c3ccccc3)[C@]3(O)C[C@H](OC(=O)[C@H](O)[C@@H](NC(=O)c4ccccc4)c4ccccc4)C(C)=C1C3(C)C)[C@]1(OC(C)=O)CO[C@@H]1C[C@@H]2O [Taxol]
